# Columns and labels:
# [1] = molecular target: T1, Fatty-acid amide hydrolase 1 (Rattus norvegicus) (UniProt P97612); assay: Inhibition of FAAH in rat brain homogenates using [3H]-anandamide as substrate assessed as formation of [3H]-ethanolamine at 10 uM relative to control; format: tissue-based; details: values are per cent of control
# T1 sequence (whole entry): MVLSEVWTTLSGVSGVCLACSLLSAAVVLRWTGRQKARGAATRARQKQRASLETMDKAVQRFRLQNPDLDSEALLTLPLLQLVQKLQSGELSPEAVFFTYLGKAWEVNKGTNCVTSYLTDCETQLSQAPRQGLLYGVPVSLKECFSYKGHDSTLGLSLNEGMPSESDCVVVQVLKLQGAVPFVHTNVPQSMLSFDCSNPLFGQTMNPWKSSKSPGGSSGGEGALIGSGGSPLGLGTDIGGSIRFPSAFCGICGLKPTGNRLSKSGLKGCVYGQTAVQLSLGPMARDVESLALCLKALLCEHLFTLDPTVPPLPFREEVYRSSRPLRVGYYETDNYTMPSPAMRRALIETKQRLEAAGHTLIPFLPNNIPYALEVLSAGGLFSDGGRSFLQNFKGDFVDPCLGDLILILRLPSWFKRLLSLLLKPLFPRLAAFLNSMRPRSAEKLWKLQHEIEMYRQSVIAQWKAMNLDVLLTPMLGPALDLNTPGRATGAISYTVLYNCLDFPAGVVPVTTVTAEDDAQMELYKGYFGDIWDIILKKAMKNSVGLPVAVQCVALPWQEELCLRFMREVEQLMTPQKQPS
# [2] = system: Mus musculus; assay: Inhibition of FAAH in mouse liver at 10 mg/kg, po after 24 hrs; format: functional; details: values are per cent of control
# [3] = system: Mus musculus; assay: Inhibition of FAAH in mouse liver at 10 mg/kg, po after 1 hr; format: functional; details: values are per cent of control
# [4] = system: Mus musculus; assay: Inhibition of FAAH in mouse liver at 10 mg/kg, po after 8 hrs; format: functional; details: values are per cent of control
# [5] = system: Mus musculus; assay: Inhibition of FAAH in mouse liver at 30 mg/kg, po after 1 hr; format: functional; details: values are per cent of control
# [6] = system: Mus musculus; assay: Inhibition of FAAH in mouse brain at 10 mg/kg, po after 4 hrs; format: functional; details: values are per cent of control
# [7] = system: Mus musculus; assay: Inhibition of FAAH in mouse brain at 30 mg/kg, po after 1 hr; format: functional; details: values are per cent of control
# [8] = system: Mus musculus; assay: Inhibition of FAAH in mouse brain at 10 mg/kg, po after 24 hrs; format: functional; details: values are per cent of control
# [9] = system: Mus musculus; assay: Inhibition of FAAH in mouse liver at 10 mg/kg, po after 4 hrs; format: functional; details: values are per cent of control
# [10] = system: Mus musculus; assay: Inhibition of FAAH in mouse brain at 10 mg/kg, po after 8 hrs; format: functional; details: values are per cent of control
# [11] = system: Mus musculus; assay: Inhibition of FAAH in mouse brain at 10 mg/kg, po after 1 hr; format: functional; details: values are per cent of control
# [12] = system: Mus musculus; assay: Inhibition of FAAH in mouse brain at 30 mg/kg, po after 4 hrs; format: functional; details: values are per cent of control
# [13] = system: Mus musculus; assay: Inhibition of FAAH in mouse liver at 30 mg/kg, po after 8 hrs; format: functional; details: values are per cent of control
# [14] = system: Mus musculus; assay: Inhibition of FAAH in mouse brain at 30 mg/kg, po after 24 hrs; format: functional; details: values are per cent of control
# [15] = system: Mus musculus; assay: Inhibition of FAAH in mouse liver at 30 mg/kg, po after 24 hrs; format: functional; details: values are per cent of control
# [16] = system: Mus musculus; assay: Inhibition of FAAH in mouse brain at 30 mg/kg, po after 8 hrs; format: functional; details: values are per cent of control
# [17] = molecular target: T2, Fatty-acid amide hydrolase 1 (Homo sapiens, UniProt O00519); assay: Inhibition of FAAH (unknown origin)
# T2 sequence (O00519 whole entry): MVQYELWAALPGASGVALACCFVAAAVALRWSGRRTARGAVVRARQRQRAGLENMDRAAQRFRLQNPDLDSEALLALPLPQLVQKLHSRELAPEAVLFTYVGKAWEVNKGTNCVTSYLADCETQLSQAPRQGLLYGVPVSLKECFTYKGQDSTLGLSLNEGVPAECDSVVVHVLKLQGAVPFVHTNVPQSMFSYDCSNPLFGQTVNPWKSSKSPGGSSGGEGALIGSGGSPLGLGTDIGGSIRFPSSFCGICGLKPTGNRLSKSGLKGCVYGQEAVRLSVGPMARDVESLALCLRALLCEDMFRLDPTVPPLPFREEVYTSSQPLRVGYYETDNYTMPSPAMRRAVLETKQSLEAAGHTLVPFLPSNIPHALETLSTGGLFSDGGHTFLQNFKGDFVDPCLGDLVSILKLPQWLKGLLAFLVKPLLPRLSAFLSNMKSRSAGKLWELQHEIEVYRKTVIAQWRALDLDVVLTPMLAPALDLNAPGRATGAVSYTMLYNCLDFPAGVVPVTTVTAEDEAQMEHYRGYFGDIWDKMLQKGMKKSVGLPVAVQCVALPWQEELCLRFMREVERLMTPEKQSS
# [18] = system: Mus musculus; assay: Inhibition of FAAH in mouse liver at 30 mg/kg, po after 4 hrs; format: functional; details: values are per cent of control
SMILES,residual activity at 30 mg/kg [5] [%],residual activity at 30 mg/kg [7] [%],other results
O=c1oc(Cc2ccccc2)nn1-c1ccccc1,,,residual activity [1]: 97%
COc1nn(-c2cccc(Cl)c2)c(=O)o1,,,residual activity [1]: 5%
O=c1oc(Oc2ccc(F)cc2F)nn1-c1ccc(O)c(O)c1,4,66,residual activity at 10 mg/kg [2]: 79%; residual activity at 10 mg/kg [3]: 6%; residual activity at 10 mg/kg [4]: 27%; residual activity at 10 mg/kg [6]: 100%; residual activity at 10 mg/kg [8]: 104%; residual activity at 10 mg/kg [9]: 18%; residual activity at 10 mg/kg [10]: 103%; residual activity at 10 mg/kg [11]: 102%
O=c1oc(Oc2ccc(Cl)cc2)nn1-c1ccc(O)cc1F,4,64,residual activity at 30 mg/kg [12]: 34%; residual activity at 30 mg/kg [13]: 7%; residual activity at 30 mg/kg [14]: 80%; residual activity at 30 mg/kg [15]: 79%; residual activity at 30 mg/kg [16]: 57%
O=c1oc(Oc2ccccc2)nn1-c1cccc(O)c1,33,95,
O=c1oc(Oc2ccc(Cl)cc2)nn1-c1ccccc1,81,110,
COc1nn(-c2ccc(Oc3ccccc3)cc2)c(=O)o1,,,IC50 [17]: 6.1 nM
O=c1oc(Oc2ccc([N+](=O)[O-])cc2)nn1-c1ccc(O)cc1,45,96,
O=c1oc(N2CCOCC2)nn1-c1cccc(Cl)c1,,,residual activity [1]: 104%
O=c1oc(Oc2ccc(Cl)cc2)nn1-c1ccc(O)c(O)c1,5,83,residual activity at 10 mg/kg [2]: 91%; residual activity at 10 mg/kg [3]: 10%; residual activity at 10 mg/kg [4]: 38%; residual activity at 10 mg/kg [6]: 90%; residual activity at 10 mg/kg [8]: 102%; residual activity at 10 mg/kg [9]: 17%; residual activity at 10 mg/kg [10]: 96%; residual activity at 10 mg/kg [11]: 99%
O=c1oc(Oc2ccc(F)cc2)nn1-c1cccc(O)c1,24,99,
O=c1oc(Oc2ccc(F)cc2F)nn1-c1cccc(O)c1,12,94,
O=c1oc(Oc2ccc(F)cc2F)nn1-c1ccccc1,39,94,
O=c1oc(OCc2ccccc2)nn1Cc1ccccc1,,,residual activity [1]: 86%
COc1ccc(Oc2nn(-c3ccccc3)c(=O)o2)cc1,94,108,
O=c1oc(Oc2ccc(F)cc2)nn1-c1ccc(O)cc1,30,82,
O=c1oc(Oc2ccccc2F)nn1-c1ccc(O)cc1,44,94,
O=c1oc(-c2ccccc2)nn1-c1ccccc1,,,residual activity [1]: 110%
O=c1oc(Oc2ccccc2)nn1-c1ccc(F)cc1F,65,86,
O=c1oc(Oc2ccc(Cl)cc2Cl)nn1-c1ccc(O)cc1,9,59,residual activity at 30 mg/kg [12]: 72%; residual activity at 30 mg/kg [13]: 11%; residual activity at 30 mg/kg [14]: 99%; residual activity at 30 mg/kg [15]: 103%; residual activity at 30 mg/kg [16]: 52%; residual activity at 30 mg/kg [18]: 18%
O=c1oc(Oc2ccccc2)nn1-c1ccc(O)cc1,46,97,
O=c1oc(Oc2ccc(Cl)cc2)nn1-c1ccc(O)cc1,20,38,
O=c1oc(Oc2ccc(Cl)cc2)nn1-c1cccc(O)c1,10,100,
COc1cc(Br)ccc1Oc1nn(-c2ccccc2)c(=O)o1,83,101,
O=c1oc(Oc2ccccc2)nn1-c1ccccc1F,72,,
O=C(c1ccccc1)c1nn(-c2ccccc2)c(=O)o1,,,residual activity [1]: 84%
O=c1oc(Oc2ccc(F)cc2F)nn1-c1ccc(O)cc1,12,86,

# Source: ChEMBL document CHEMBL3217452, “Design, synthesis, and structureactivity relationships of 1,3,4-oxadiazol-2(3H)-ones as novel FAAH inhibitors” (Medchemcomm, 2011)
